From patent US20260053932A1, “COMPOUNDS AND METHODS FOR THE TARGETED DEGRADATION OF ANDROGEN RECEPTOR AND ASSOCIATED METHODS OF USE” (Arvinas Operations, Inc., priority 2020, published 2026)

These compounds were tested on androgen receptor (AR) in LNCaP and/or VCaP cells (assay: Androgen Receptor ELISA assay (AR degradation)). Details: LNCaP and/or VCaP cells; 5 hours incubation; media with R1881; read-out: DC50 Code* (degradation of AR ELISA).
Assay type: cell-based
How it was run: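 VCaP cells grown ≥3 days, then treated 5 h with compound in media containing 1 nM R1881 (10× stock). Cells lysed and AR quantified by sandwich ELISA (mouse AR detection Ab, HRP anti-mouse, TMB). DC50 and Dmax derived from AR degradation.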

DC50 | SMILES
> 100 nM | COc1cc(O[C@H]2C[C@H](N(CC3CCN(c4ncc(C(=O)NC5CC6CN(Cc7cc(C)c(C#N)c(C)c7)CC6C5)cn4)CC3)C(C)C)C2)cc2c1C(=O)N(C1CCC(=O)NC1=O)C2=O (stereo partly shown) [Compound 3, N-(2-(4-cyano-3,5-dimethylbenzyl)octahydrocyclopenta [c]pyrrol-5-yl)-2-(4-((((1r,3r)-3-((2-(2,6-dioxopiperidin-3-yl)-7-methoxy-1,3-dioxoisoindolin-5-yl)oxy)cyclobutyl) (isopropyl)amino)methyl)piperidin-1-yl)pyrimidine-5-carboxamide]
< 1 nM | COCCN(CC1CCN(c2cnc(C(=O)N[C@H]3CC[C@H](Oc4ccc(C#N)c(Cl)c4)CC3)cn2)CC1)[C@H]1C[C@H](Oc2ccc3c(c2)CN(C2CCC(=O)NC2=O)C3=O)C1 (stereo partly shown) [Compound 16, N-((1r,4r)-4-(3-chloro-4-cyanophenoxy)cyclohexyl)-5-(4-((((1r,3r)-3-((2-(2,6-dioxopiperidin-3-yl)-1-oxoisoindolin-5-yl)oxy)cyclobutyl)(2-methoxyethyl)amino)methyl)piperidin-1-yl)pyrazine-2-carboxamide]
< 1 nM | CC(C)N(CC1CCN(c2ncc(C(=O)N[C@H]3C(C)(C)[C@H](Oc4ccc(C#N)c(Cl)c4)C3(C)C)cn2)CC1)[C@H]1CC[C@H](Oc2ccc3c(c2)C(=O)N(C2CCC(=O)NC2=O)C3=O)CC1 (stereo partly shown) [Compound 26, N-((1r,3r)-3-(3-chloro-4-cyanophenoxy)-2,2,4,4-tetramethylcyclobutyl)-2-(4-((((1r,4r)-4-((2-(2,6-dioxopiperidin-3-yl)-1,3-dioxoisoindolin-5-yl)oxy)cyclohexyl) (isopropyl)amino)methyl)piperidin-1-yl)pyrimidine-5-carboxamide]
> 100 nM | COc1cc(O[C@H]2CC[C@H](NC(=O)c3cnc(N4CCC(CN(C(C)C)[C@H]5C[C@H](Oc6ccc7c(c6)C(=O)N(C6CCC(=O)NC6=O)C7=O)C5)CC4)cn3)C2)ccc1C#N (stereo partly drawn) [Compound 7, N-((1S,3S)-3-(4-cyano-3-methoxyphenoxy)cyclopentyl)-5-(4-((((1r,3S)-3-((2-(2,6-dioxopiperidin-3-yl)-1,3-dioxoisoindolin-5-yl)oxy)cyclobutyl) (isopropyl)amino)methyl)piperidin-1-yl)pyrazine-2-carboxamide]

Same assay, conditions: degradation of AR ELISA in LNCaP and/or VCaP cells; Table 2C; read-out: DC50 Code*

SMILES | DC50
CC1(C)[C@H](NC(=O)c2ccc(N3CCC(CN4CCN(c5ccc6c(c5)C(=O)N([C@]5(C#N)CCC(=O)NC5=O)C6)CC4)CC3)cc2)C(C)(C)[C@H]1Oc1ccc(C#N)c(Cl)c1 [compound 156, N-((1r,3r)-3-(3-chloro-4-cyanophenoxy)-2,2,4,4-tetramethylcyclobutyl)-4-(4-((4-(2-((S)-3-cyano-2,6-dioxopiperidin-3-yl)-3-oxoisoindolin-5-yl)piperazin-1-yl)methyl)piperidin-1-yl)benzamide] | > 100 nM
CC1(C)[C@H](NC(=O)c2ccn([C@H]3CC[C@H](CCCOc4ccc5c(c4)C(=O)N(C4CCC(=O)NC4=O)C5=O)CC3)n2)C(C)(C)[C@H]1Oc1ccc(C#N)c(Cl)c1 (stereo partly drawn) [compound 140, N-((1r,3R)-3-(3-chloro-4-cyanophenoxy)-2,2,4,4-tetramethylcyclobutyl)-1-((1r,4R)-4-(3-((2-(2,6-dioxopiperidin-3-yl)-1,3-dioxoisoindolin-5-yl)oxy)propyl)cyclohexyl)-1H-pyrazole-3-carboxamide] | > 100 nM
Cc1cc(O[C@H]2C(C)(C)[C@H](NC(=O)c3ccc(N4CCO[C@@H](CN5CCN(c6ccc7c(c6)C(=O)N(C6CCC(=O)NC6=O)C7=O)CC5)C4)cc3)C2(C)C)cc(C)c1C#N (stereo partly drawn) [compound 171, N-((1r,3S)-3-(4-cyano-3,5-dimethylphenoxy)-2,2,4,4-tetramethylcyclobutyl)-4-((2S)-2-((4-(2-(2,6-dioxopiperidin-3-yl)-1,3-dioxoisoindolin-5-yl)piperazin-1-yl)methyl)morpholino) benzamide] | < 1 nM
COCCN(CC1CCN(c2nc(C)c(C(=O)N[C@H]3C(C)(C)[C@H](Oc4ccc(C#N)c(OC)c4)C3(C)C)c(C)n2)CC1)[C@H]1C[C@H](Oc2cc(OC)c3c(c2)C(=O)N(C2CCC(=O)NC2=O)C3=O)C1 (mixture of isomers) [compound 232, rac-N-((1r,3r)-3-(4-cyano-3-methoxyphenoxy)-2,2,4,4-tetramethylcyclobutyl)-2-(4-((((1r,3r)-3-((2-(2,6-dioxopiperidin-3-yl)-7-methoxy-1,3-dioxoisoindolin-5-yl)oxy)cyclobutyl)(2-methoxyethyl)amino)methyl)piperidin-1-yl)-4,6-dimethylpyrimidine-5-carboxamide] | < 1 nM

Second part, the compound after the results:

DC50 | SMILES
< 1 nM | Cc1cc(O[C@H]2C(C)(C)[C@H](NC(=O)c3ccc(CN4CCOC[C@@H]4CN(C)[C@H]4C[C@H](Oc5ccc6c(c5)C(=O)N(C5CCC(=O)NC5=O)C6=O)C4)cc3)C2(C)C)cc(C)c1C#N (stereo partly drawn) [compound 151, N-((1r,3S)-3-(4-cyano-3,5-dimethylphenoxy)-2,2,4,4-tetramethylcyclobutyl)-4-(((3S)-3-((((1r,3S)-3-((2-(2,6-dioxopiperidin-3-yl)-1,3-dioxoisoindolin-5-yl)oxy)cyclobutyl) (methyl)amino)methyl)morpholino)methyl) benzamide]
< 1 nM | Cc1cc(O[C@H]2C(C)(C)[C@H](NC(=O)c3cnc(N4CCC(CN(CCN5CCOCC5)[C@H]5C[C@H](Oc6ccc7c(c6)C(=O)N(C6CCC(=O)NC6=O)C7=O)C5)CC4)cn3)C2(C)C)cc(C)c1C#N (stereo partly shown) [compound 230, N-((1r,3r)-3-(4-cyano-3,5-dimethylphenoxy)-2,2,4,4-tetramethylcyclobutyl)-5-(4-((((1r,3r)-3-((2-(2,6-dioxopiperidin-3-yl)-1,3-dioxoisoindolin-5-yl)oxy)cyclobutyl)(2-morpholinoethyl)amino)methyl)piperidin-1-yl)pyrazine-2-carboxamide]
< 1 nM | COc1cc(O[C@H]2C[C@H](N(CC3CCN(c4ncc(C(=O)N[C@H]5C(C)(C)[C@H](Oc6cc(C)c(C#N)c(C)c6)C5(C)C)cn4)CC3)C(C)C)C2)cc2c1C(=O)N(C1CCC(=O)NC1=O)C2=O (stereo partly shown) [compound 79, N-((1r,3r)-3-(4-cyano-3,5-dimethylphenoxy)-2,2,4,4-tetramethylcyclobutyl)-2-(4-((((1r,3r)-3-((2-(2,6-dioxopiperidin-3-yl)-7-methoxy-1,3-dioxoisoindolin-5-yl)oxy)cyclobutyl) (isopropyl)amino)methyl)piperidin-1-yl)pyrimidine-5-carboxamide]
< 1 nM | COc1cc(O[C@H]2C[C@H](N(CC3CCN(c4cnc(C(=O)N[C@H]5C(C)(C)[C@H](Oc6ccc(C#N)c(Cl)c6)C5(C)C)cn4)CC3)C(C)C)C2)cc2c1CN(C1CCC(=O)NC1=O)C2=O (mixture of isomers) [compound 226, rac-N-((1r,3r)-3-(3-chloro-4-cyanophenoxy)-2,2,4,4-tetramethylcyclobutyl)-5-(4-((((1r,3r)-3-((2-(2,6-dioxopiperidin-3-yl)-7-methoxy-3-oxoisoindolin-5-yl)oxy)cyclobutyl) (isopropyl)amino)methyl)piperidin-1-yl)pyrazine-2-carboxamide]
< 1 nM | Cc1cc(O[C@H]2C(C)(C)[C@H](NC(=O)c3cnc(N4CCC(CN(CC(F)F)[C@H]5C[C@H](Oc6ccc7c(c6)C(=O)N(C6CCC(=O)NC6=O)C7)C5)CC4)nc3)C2(C)C)cc(C)c1C#N (stereo partly shown) [compound 109, N-((1r,3r)-3-(4-cyano-3,5-dimethylphenoxy)-2,2,4,4-tetramethylcyclobutyl)-2-(4-(((2,2-difluoroethyl)((1r,3r)-3-((2-(2,6-dioxopiperidin-3-yl)-3-oxoisoindolin-5-yl)oxy)cyclobutyl)amino)methyl)piperidin-1-yl)pyrimidine-5-carboxamide]
